# How the values were obtained:
# [1] = target: Melanin-concentrating hormone receptor 1 (Homo sapiens, UniProt Q99705); assay: Inhibition of 125I-MCH binding to human MCH-R1 expressed in CHO cell membranes
# [2] = AUC (0-6hr) in rats following 10 mg/kg peroral dose; format: ADME, organism-based; design: time < 6 hr, dose 10 mg/kg, route oral; details: rat, plasma, po
# Mus musculus = assay: Inhibition of ex vivo MCH-R1 binding following 30 mg/kg peroral dose in mice after 6hr; format: functional; details: route oral
# Sequence of Melanin-concentrating hormone receptor 1 (Q99705 whole entry): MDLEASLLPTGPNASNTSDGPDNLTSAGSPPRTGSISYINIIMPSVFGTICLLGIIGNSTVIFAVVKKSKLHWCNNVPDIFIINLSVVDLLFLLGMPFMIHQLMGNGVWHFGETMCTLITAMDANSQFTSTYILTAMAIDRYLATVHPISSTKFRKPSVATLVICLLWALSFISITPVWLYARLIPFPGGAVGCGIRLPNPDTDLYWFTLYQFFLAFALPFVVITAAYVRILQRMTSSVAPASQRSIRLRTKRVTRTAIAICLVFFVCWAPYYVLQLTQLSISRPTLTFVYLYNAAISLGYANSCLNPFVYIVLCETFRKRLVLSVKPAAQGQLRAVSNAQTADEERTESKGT
SMILES,Ki [1] [µM],AUC(0-t) at 6 h [2] [µg·h/mL],inhibition in vivo at 30 mg/kg (Mus musculus) [%]
CN1CCN(CCCN(C(=O)Nc2ccc(F)c(Cl)c2)C2CCc3ccc(C#N)cc3C2)CC1 (centres undefined),0.0085,0.642,84
CN1CCN(CCCN(C(=O)Nc2ccc(F)c(Cl)c2)C2CCc3ccccc3C2)CC1 (centres undefined),0.38,–,–
CN1CCN(CCCN(C(=O)Nc2ccc(F)c(Cl)c2)C2CCc3ccc(N)cc3C2)CC1 (centres undefined),0.26,–,–
CNS(=O)(=O)c1ccc2c(c1)CC(N(CCCN1CCN(C)CC1)C(=O)Nc1ccc(F)c(Cl)c1)CC2 (centres undefined),3,–,–
CN1CCN(CCCN(C(=O)Nc2ccc(F)c(Cl)c2)C2CCc3ccc(S(C)(=O)=O)cc3C2)CC1 (centres undefined),1.3,–,–
CC(=O)Nc1ccc2c(c1)CC(N(CCCN1CCN(C)CC1)C(=O)Nc1ccc(F)c(Cl)c1)CC2 (centres undefined),–,0.195,23
COc1ccc2c(c1)CCC(N(CCCN1CCN(C)CC1)C(=O)Nc1ccc(F)c(Cl)c1)C2 (centres undefined),0.19,–,–
CN1CCN(CCCN(C(=O)Nc2ccc(F)c(Cl)c2)C2CCc3ccc(S(=O)(=O)N(C)C)cc3C2)CC1 (centres undefined),3,–,–
CN1CCN(CCCN(C(=O)Nc2ccc(F)c(Cl)c2)[C@@H]2CC[C@]3(c4cccc(C#N)c4)C[C@@H]3C2)CC1,0.004,–,–
CN1CCN(CCCN(C(=O)Nc2ccc(F)c(Cl)c2)C2CCc3cc(C#N)ccc3C2)CC1 (centres undefined),0.34,–,–
CCNC(=O)Nc1ccc2c(c1)CC(N(CCCN1CCN(C)CC1)C(=O)Nc1ccc(F)c(Cl)c1)CC2 (centres undefined),0.16,–,–

# From ChEMBL document CHEMBL1137583 (Bioorg Med Chem Lett, 2007)
